Measurements as given in ChEMBL document CHEMBL3046436, “Effects of 1,3-dichloropropene as a methyl bromide alternative for management of nematode, soil-borne disease, and weed in ginger (Zingiber officinale) crops in China” (2012).
The source made the active and inactive calls. The rule behind the calls is not given here.

Legend:
Meloidogyne incognita [1] = assay: Nematicidal activity against Meloidogyne incognita (root-knot nematode) in ginger crop fields assessed as number of nematodes per 100 cm3 soil at 90 L/ha measured after 40 days post compound application (reference value: 75.3 nematodes in 100 cm3 soil); assay type: functional
Meloidogyne incognita [2] = assay: Nematicidal activity against Meloidogyne incognita (root-knot nematode) in ginger crop fields assessed as number of nematodes per 100 cm3 soil at 90 L/ha measured after 20 days post compound application (reference value: 56.7 nematodes in 100 cm3 soil); assay type: functional
Meloidogyne incognita [3] = assay: Nematicidal activity against Meloidogyne incognita (root-knot nematode) in ginger crop fields assessed as number of nematodes per 100 cm3 soil at 90 L/ha measured after 60 days post compound application (reference value: 88.2 nematodes in 100 cm3 soil); assay type: functional
Zingiber officinale [4] = assay: Increase in stem diameter of Zingiber officinale (ginger) plants at 180 L/ha applied through fumigation protocol (reference value: 11.3 mm); assay type: functional
Meloidogyne incognita [5] = assay: Nematicidal activity against Meloidogyne incognita (root-knot nematode) in ginger crop fields assessed as root galling index at 90 L/ha measured after 60 days post compound application (reference value: 5.49 root galling index); assay type: functional
Capsella bursa-pastoris [6] = assay: Herbicidal activity against Capsella bursa-pastoris assessed as reduction in weed populations at 90 to 180 L/ha; assay type: functional, organism-based
Zingiber officinale [7] = assay: Increase in plant height of Zingiber officinale (ginger) plants at 90 L/ha applied through fumigation protocol (reference value: 79.6 cm); assay type: functional
Zingiber officinale [8] = assay: Increase in large fruit yield in Zingiber officinale (ginger) plants at 180 L/ha applied through fumigation protocol (reference value: 20.1 ton/ha); assay type: functional
Meloidogyne incognita [9] = assay: Nematicidal activity against Meloidogyne incognita (root-knot nematode) in ginger crop fields assessed as number of nematodes per 100 cm3 soil at 180 L/ha measured after 20 days post compound application (reference value: 56.7 nematodes in 100 cm3 soil); assay type: functional
Zingiber officinale [10] = assay: Increase in leaves number of Zingiber officinale (ginger) plants at 90 to 180 L/ha applied through fumigation protocol; assay type: functional, organism-based
Zingiber officinale [11] = assay: Increase in medium fruit yield in Zingiber officinale (ginger) plants at 90 L/ha applied through fumigation protocol (reference value: 24.6 ton/ha); assay type: functional
Zingiber officinale [12] = assay: Increase in large fruit yield in Zingiber officinale (ginger) plants at 90 L/ha applied through fumigation protocol (reference value: 20.1 ton/ha); assay type: functional
Zingiber officinale [13] = assay: Increase in large fruit yield in Zingiber officinale (ginger) plants at 120 L/ha applied through fumigation protocol (reference value: 20.1 ton/ha); assay type: functional
Zingiber officinale [14] = assay: Increase in marketable fruit yield in Zingiber officinale (ginger) plants at 120 L/ha applied through fumigation protocol (reference value: 48.2 ton/ha); assay type: functional
Zingiber officinale [15] = assay: Increase in plant height of Zingiber officinale (ginger) plants at 180 L/ha applied through fumigation protocol (reference value: 79.6 cm); assay type: functional
Zingiber officinale [16] = assay: Increase in stem diameter of Zingiber officinale (ginger) plants at 90 L/ha applied through fumigation protocol (reference value: 11.3 mm); assay type: functional
Ralstonia solanacearum [17] = assay: Antimicrobial activity against Ralstonia solanacearum in ginger plants fields assessed as reduction in ginger blast-induced plant mortality at 120 to 180 L/ha applied through fumigation protocol; assay type: functional, organism-based
Zingiber officinale [18] = assay: Increase in shoots number of Zingiber officinale (ginger) plants at 90 to 180 L/ha applied through fumigation protocol; assay type: functional, organism-based
Stellaria media [19] = assay: Herbicidal activity against Stellaria media assessed as reduction in weed populations at 90 to 180 L/ha; assay type: functional, organism-based
Meloidogyne incognita [20] = assay: Nematicidal activity against Meloidogyne incognita (root-knot nematode) in ginger crop fields assessed as number of nematodes per 100 cm3 soil at 120 L/ha measured after 60 days post compound application (reference value: 88.2 nematodes in 100 cm3 soil); assay type: functional
Zingiber officinale [21] = assay: Increase in marketable fruit yield in Zingiber officinale (ginger) plants at 180 L/ha applied through fumigation protocol (reference value: 48.2 ton/ha); assay type: functional
Meloidogyne incognita [22] = assay: Nematicidal activity against Meloidogyne incognita (root-knot nematode) in ginger crop fields assessed as number of nematodes per 100 cm3 soil at 180 L/ha measured after 40 days post compound application (reference value: 75.3 nematodes in 100 cm3 soil); assay type: functional
Meloidogyne incognita [23] = assay: Nematicidal activity against Meloidogyne incognita (root-knot nematode) in ginger crop fields assessed as root galling index at 180 L/ha measured after 60 days post compound application (reference value: 5.49 root galling index); assay type: functional
Zingiber officinale [24] = assay: Increase in extra-large fruit yield in Zingiber officinale (ginger) plants at 180 L/ha applied through fumigation protocol (reference value: 3.5 ton/ha); assay type: functional
Zingiber officinale [25] = assay: Increase in stem diameter of Zingiber officinale (ginger) plants at 120 L/ha applied through fumigation protocol (reference value: 11.3 mm); assay type: functional
Zingiber officinale [26] = assay: Increase in medium fruit yield in Zingiber officinale (ginger) plants at 120 L/ha applied through fumigation protocol (reference value: 24.6 ton/ha); assay type: functional
Meloidogyne incognita [27] = assay: Nematicidal activity against Meloidogyne incognita (root-knot nematode) in ginger crop fields assessed as number of nematodes per 100 cm3 soil at 120 L/ha measured after 40 days post compound application (reference value: 75.3 nematodes in 100 cm3 soil); assay type: functional
Zingiber officinale [28] = assay: Increase in plant height of Zingiber officinale (ginger) plants at 120 L/ha applied through fumigation protocol (reference value: 79.6 cm); assay type: functional
Zingiber officinale [29] = assay: Increase in marketable fruit yield in Zingiber officinale (ginger) plants at 90 L/ha applied through fumigation protocol (reference value: 48.2 ton/ha); assay type: functional
Meloidogyne incognita [30] = assay: Nematicidal activity against Meloidogyne incognita (root-knot nematode) in ginger crop fields assessed as number of nematodes per 100 cm3 soil at 120 L/ha measured after 20 days post compound application (reference value: 56.7 nematodes in 100 cm3 soil); assay type: functional
Zingiber officinale [31] = assay: Increase in extra-large fruit yield in Zingiber officinale (ginger) plants at 90 L/ha applied through fumigation protocol (reference value: 3.5 ton/ha); assay type: functional
Digitaria sanguinalis [32] = assay: Herbicidal activity against Digitaria sanguinalis (hairy crabgrass) assessed as reduction in weed populations at 90 to 180 L/ha; assay type: functional, organism-based
Meloidogyne incognita [33] = assay: Nematicidal activity against Meloidogyne incognita (root-knot nematode) in ginger crop fields assessed as number of nematodes per 100 cm3 soil at 180 L/ha measured after 60 days post compound application (reference value: 88.2 nematodes in 100 cm3 soil); assay type: functional
Zingiber officinale [34] = assay: Increase in medium fruit yield in Zingiber officinale (ginger) plants at 180 L/ha applied through fumigation protocol (reference value: 24.6 ton/ha); assay type: functional
Meloidogyne incognita [35] = assay: Nematicidal activity against Meloidogyne incognita (root-knot nematode) in ginger crop fields assessed as root galling index at 120 L/ha measured after 60 days post compound application (reference value: 5.49 root galling index); assay type: functional
Zingiber officinale [36] = assay: Increase in plant height of Zingiber officinale (ginger) plants at 400 kg/ha applied through fumigation protocol (reference value: 79.6 cm); assay type: functional
Digitaria sanguinalis [37] = assay: Herbicidal activity against Digitaria sanguinalis (hairy crabgrass) assessed as reduction in weed populations at 400 kg/ha; assay type: functional, organism-based
Meloidogyne incognita [38] = assay: Nematicidal activity against Meloidogyne incognita (root-knot nematode) in ginger crop fields assessed as number of nematodes per 100 cm3 soil at 400 kg/ha measured after 40 days post compound application (reference value: 75.3 nematodes in 100 cm3 soil); assay type: functional
Zingiber officinale [39] = assay: Increase in extra-large fruit yield in Zingiber officinale (ginger) plants at 400 kg/ha applied through fumigation protocol (reference value: 3.5 ton/ha); assay type: functional
Zingiber officinale [40] = assay: Increase in medium fruit yield in Zingiber officinale (ginger) plants at 400 kg/ha applied through fumigation protocol (reference value: 24.6 ton/ha); assay type: functional
Zingiber officinale [41] = assay: Increase in marketable fruit yield in Zingiber officinale (ginger) plants at 400 kg/ha applied through fumigation protocol (reference value: 48.2 ton/ha); assay type: functional
Meloidogyne incognita [42] = assay: Nematicidal activity against Meloidogyne incognita (root-knot nematode) in ginger crop fields assessed as number of nematodes per 100 cm3 soil at 400 kg/ha measured after 60 days post compound application (reference value: 88.2 nematodes in 100 cm3 soil); assay type: functional
Meloidogyne incognita [43] = assay: Nematicidal activity against Meloidogyne incognita (root-knot nematode) in ginger crop fields assessed as number of nematodes per 100 cm3 soil at 400 kg/ha measured after 20 days post compound application (reference value: 56.7 nematodes in 100 cm3 soil); assay type: functional
Zingiber officinale [44] = assay: Increase in large fruit yield in Zingiber officinale (ginger) plants at 400 kg/ha applied through fumigation protocol (reference value: 20.1 ton/ha); assay type: functional
Ralstonia solanacearum [45] = assay: Antimicrobial activity against Ralstonia solanacearum in ginger plants fields assessed as reduction in ginger blast-induced plant mortality at 400 kg/ha applied through fumigation protocol; assay type: functional, organism-based
Zingiber officinale [46] = assay: Increase in stem diameter of Zingiber officinale (ginger) plants at 400 kg/ha applied through fumigation protocol (reference value: 11.3 mm); assay type: functional
Meloidogyne incognita [47] = assay: Nematicidal activity against Meloidogyne incognita (root-knot nematode) in ginger crop fields assessed as root galling index at 400 kg/ha measured after 60 days post compound application (reference value: 5.49 root galling index); assay type: functional
Stellaria media [48] = assay: Herbicidal activity against Stellaria media assessed as reduction in weed populations at 400 kg/ha; assay type: functional, organism-based
Capsella bursa-pastoris [49] = assay: Herbicidal activity against Capsella bursa-pastoris assessed as reduction in weed populations at 400 kg/ha; assay type: functional, organism-based

Compound: Cl/C=C/CCl [1,3-DICHLOROPROPENE]
- Activity (Meloidogyne incognita [1]): 45.1 /10'2cm3
- Activity (Meloidogyne incognita [2]): 33.6 /10'2cm3
- Activity (Meloidogyne incognita [3]): 58.5 /10'2cm3
- Activity (Zingiber officinale [4]): 13.9 mm
- Root_galling_index (Meloidogyne incognita [5]): 3.66
- Activity (Capsella bursa-pastoris [6]): inactive
- Activity (Zingiber officinale [7]): 82.6 cm
- Crop_yield (Zingiber officinale [8]): 29.5 tons/ha
- Activity (Meloidogyne incognita [9]): 17.3 /10'2cm3
- Activity (Zingiber officinale [10]): Active
- Crop_yield (Zingiber officinale [11]): 32.4 tons/ha
- Crop_yield (Zingiber officinale [12]): 24.9 tons/ha
- Crop_yield (Zingiber officinale [13]): 26.9 tons/ha
- Crop_yield (Zingiber officinale [14]): 71.1 tons/ha
- Activity (Zingiber officinale [15]): 88.9 cm
- Activity (Zingiber officinale [16]): 12.1 mm
- Activity (Ralstonia solanacearum [17]): Active
- Activity (Zingiber officinale [18]): Active
- Activity (Stellaria media [19]): inactive
- Activity (Meloidogyne incognita [20]): 45.5 /10'2cm3
- Crop_yield (Zingiber officinale [21]): 75.8 tons/ha
- Activity (Meloidogyne incognita [22]): 27.3 /10'2cm3
- Root_galling_index (Meloidogyne incognita [23]): 2.31
- Crop_yield (Zingiber officinale [24]): 8.1 tons/ha
- Activity (Zingiber officinale [25]): 12.8 mm
- Crop_yield (Zingiber officinale [26]): 36.3 tons/ha
- Activity (Meloidogyne incognita [27]): 38.4 /10'2cm3
- Activity (Zingiber officinale [28]): 85.4 cm
- Crop_yield (Zingiber officinale [29]): 64.7 tons/ha
- Activity (Meloidogyne incognita [30]): 24.2 /10'2cm3
- Crop_yield (Zingiber officinale [31]): 7.4 tons/ha
- Activity (Digitaria sanguinalis [32]): inactive
- Activity (Meloidogyne incognita [33]): 36.9 /10'2cm3
- Crop_yield (Zingiber officinale [34]): 38.2 tons/ha
- Root_galling_index (Meloidogyne incognita [35]): 3.34

Compound: CBr [BROMOMETHANE]
- Activity (Zingiber officinale [36]): 91.3 cm
- Activity (Digitaria sanguinalis [37]): Active
- Activity (Meloidogyne incognita [38]): 31.6 /10'2cm3
- Crop_yield (Zingiber officinale [39]): 8.6 tons/ha
- Crop_yield (Zingiber officinale [40]): 39.1 tons/ha
- Crop_yield (Zingiber officinale [41]): 76.4 tons/ha
- Activity (Meloidogyne incognita [42]): 47.4 /10'2cm3
- Activity (Meloidogyne incognita [43]): 22.3 /10'2cm3
- Crop_yield (Zingiber officinale [44]): 28.7 tons/ha
- Activity (Ralstonia solanacearum [45]): Active
- Activity (Zingiber officinale [46]): 13.5 mm
- Root_galling_index (Meloidogyne incognita [47]): 2.68
- Activity (Stellaria media [48]): Active
- Activity (Capsella bursa-pastoris [49]): Active
